Test results: BindingDB's records for doi:10.1016/s0960-894x(00)00660-0 (Clinical Research Institute of Montreal, 2001)
Peptide text beside a SMILES is read from it. * marks the point of attachment. X1 = Cc1cc(O)cc(C)c1C[C@H](C)C(=O)*

Assays:
[1] = Tested for binding affinity towards Opioid receptor mu 1 in rat and guinea pig brain membrane binding assays
[2] = Tested for binding affinity towards Opioid receptor delta 1 in rat and guinea pig brain membrane binding assays

SMILES: Cc1cc(O)cc(C)c1C[C@H](C)C(=O)N[C@@H](C)C(=O)NCC(=O)N[C@@H](Cc1ccccc1)C(=O)N[C@@H](CC(C)C)C(N)=O [(S)-2-[(S)-2-(2-{(S)-2-[(S)-3-(4-Hydroxy-2,6-dimethyl-phenyl)-2-methyl-propionylamino]-propionylamino}-acetylamino)-3-phenyl-propionylamino]-4-methyl-pentanoic acid amide] (X1-AGFL-NH2)
- Ki [1]: 192 nM
- Ki [2]: 12 nM
